In patent publication US4710572A, “Histamine H1 antagonists” (American Home Products Corporation, priority 1986, dated 1987):
Read-outs that look alike come from different tables or passages of the source.

Assays:
histamine H1 [1] = biological target: T1, histamine H1 (Cavia porcellus, UniProt P31389); test: Drugs vs. histamine at 1 × 10^-6 M in guinea pig terminal ileum, comparison with -383 analogues; format: cell-based; parameters: A section of terminal ileum was removed and suspended in aerated 37° C; Tyrodes solution; from tissue; host or cells: terminal ileum of male Hartley guinea pigs
T1 sequence (P31389 whole entry): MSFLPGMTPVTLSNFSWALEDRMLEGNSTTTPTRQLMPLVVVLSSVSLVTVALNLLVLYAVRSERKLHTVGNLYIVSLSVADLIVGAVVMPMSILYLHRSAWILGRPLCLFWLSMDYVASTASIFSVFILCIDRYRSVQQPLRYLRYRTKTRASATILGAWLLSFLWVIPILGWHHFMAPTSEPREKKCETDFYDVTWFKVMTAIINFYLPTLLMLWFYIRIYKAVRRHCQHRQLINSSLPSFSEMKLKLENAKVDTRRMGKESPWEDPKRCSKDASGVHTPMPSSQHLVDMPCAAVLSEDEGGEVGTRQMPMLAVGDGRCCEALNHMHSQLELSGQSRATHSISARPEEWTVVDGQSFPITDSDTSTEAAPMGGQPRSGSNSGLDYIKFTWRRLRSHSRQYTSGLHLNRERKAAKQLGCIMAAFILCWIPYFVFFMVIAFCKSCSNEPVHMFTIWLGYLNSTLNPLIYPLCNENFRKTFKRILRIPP
Text: Tyrodes solution. […] Tissues were washed several times before repeating the procedure for the next concentration. A different set of 4 tissues was used for each drug.

histamine H1 [2] = biological target: T1, histamine H1; test: cell-based
Procedure: Subsequently, additional characterization of the compound herein exemplified was carried out in which complete histamine dose response curves were constructed first in the absence of test drug and then repeated in the presence of test drug at a specified concentration. A single experiment of this type allowed calculation of a pKB value from the rightward shift induced by the drug in the histaminic dose response curve, while three such experiments (at three different drug concentrations) allowed calculation of a pA2 value.

[3] = test system: histamine-induced deaths in guinea pigs; test: Inhibition of histamine-induced deaths in guinea pigs; format: in vivo, guinea pig
Procedure: The compound exemplified herein, after a one hour pretreatment period, inhibited histamine-induced deaths in guinea pigs over the range of 1-5 mg/kg, with 100 percent effectiveness at the latter dose. At 18 hours post drug treatment the test compound retained 40 percent effectiveness at 10 mg/kg.

[4] = test system: histamine-induced wheal formation in guinea pig skin; test: Histamine-induced wheal formation in guinea pig skin; format: in vivo
[5] = test system: histamine-induced changes in bronchopulmonary parameters; test: Reversal of histamine-induced changes in bronchopulmonary parameters in the anesthetized guinea pig; format: in vivo
[6] = test system: histamine-induced paw edema formation; test: Histamine-induced paw edema formation; settings: in vivo
[7] = test system: limbic D2 dopamine receptor; test: Limbic D2 dopamine receptor binding (Fields et al.); settings: at 1 μM
[8] = Conditioned avoidance (shelf-jump), Herman et al.; format: in vivo; settings: 40 mg/kg
[9] = Confinement motor activity, Tedeschi et al.; format: in vivo; settings: 5 and 10 mg/kg i.p.
[10] = Modified Geller-Seifter experimentally-induced conflict test; settings: in vivo
histamine H1 [11] = biological target: T1, histamine H1; test: Histamine-induced contraction of isolated guinea pig ileum, single drug concentration; format: cell-based; parameters: A section of terminal ileum was removed and suspended in aerated 37° C; Tyrodes solution; from tissue; host or cells: terminal ileum of male Hartley guinea pigs; settings: histamine 1×10^-7 M; test drug 1×10^-6 M
Procedure: Fresh segments of terminal ileum immediately proximal to Peyer's patch, obtained from male Buckshire guinea pigs, were suspended in 37° C. Tyrode's solution in a tissue bath and aerated. The tissue segments were placed under one gram tension and allowed to equilibrate for one hour. Histamine was added to each tissue bath to a final concentration of 1×10^-7 M. The response was noted as grams tension. Test drug was added, in the presence of histamine, to each bath to a final concentration of 1×10^-6 M. The change in grams tension was noted and the percent reduction in grams tension calculated.

[12] = guinea pig ileum, histamine 1 × 10^-6 M, calculated from the table data, read-out: IC50 (inhibitory concentration50)

IC50 (histamine H1 [1]; [12]) [nM] | SMILES | Kb (histamine H1 [2]) [nM] | type of antagonism (shift of histamine dose response curve) (histamine H1 [2]; isolated guinea pig ileum) | potency relative to terfenadine (histamine H1 [2]; vs terfenadine) | effectiveness in inhibition of histamine-induced deaths ([3]; 5 mg/kg, one hour pretreatment) [%] | effectiveness in inhibition of histamine-induced deaths ([3]; 10 mg/kg, 18 hours post drug treatment) [%] | effectiveness against wheal formation ([4]; 1.7 mg/kg, 18 hour pretreatment) | suppression of wheal formation ([4]; highest dose (2.1 mg/kg), one hour pretreatment) | reversal of histamine-induced changes in bronchopulmonary parameters [5] | inhibition of histamine-induced paw edema formation [6] | inhibition of limbic D2 dopamine receptor binding [7] [%] | conditioned avoidance (shelf-jump) activity [8] | sedative effect in confinement motor activity [9] | effect in modified Geller-Seifter conflict test [10] | antagonist action against the histamine-induced contractile response in the isolated guinea pig ileum (histamine H1 [11]) | IC50 (histamine H1 [1]) [nM] | potency relative to the -383 dichloro compound (histamine H1 [1]; ratio of IC50's) | potency relative to the -383 monochloro compound (histamine H1 [1]; ratio of IC50's) [times]
790 | Cn1c(=O)c2c(ncn2CCCCN2CCN(C(c3ccc(Cl)cc3)c3ccc(Cl)cc3)CC2)n(C)c1=O [-383 Dichloro compound, 7-[4-[4-(4',4"-dichlorodiphenylmethyl)piperazinyl-(1)]-n-butyl]theophylline, reference compound] | – | – | – | – | – | – | – | – | – | – | – | – | – | – | – | – | –
– | Cn1c(=O)c2c(ncn2CCCN2CCN(C(c3ccc(F)cc3)c3ccc(F)cc3)CC2)n(C)c1=O [Difluoro compound, 7-[3-[4-bis(4-fluorophenyl)methyl]-1-piperazinyl]propyl-3,7-dihydro-1,3-dimethyl-1H-purine-2,6-dione] | 6.31 | parallel rightward shifts with no decrease in the maximum response | about five times as potent as terfenadine | 100 | 40 | retained maximal effectiveness | Maximum suppression of wheal formation | reversal of histamine-induced changes in bronchopulmonary parameters | inhibition of histamine-induced paw edema formation | 43 | inactive | no sedative effect | mild stimulation | potent, competitive antagonist action | 38 | about 21 times | 10
370 | Cn1c(=O)c2c(ncn2CCCN2CCN(C(c3ccccc3)c3ccc(Cl)cc3)CC2)n(C)c1=O (stereo not shown) [-383 Monochloro compound, 7-[3-[4-p-chlorobenzhydrylpiperazinyl-(1)]-n-propyl]-theophylline, reference compound] | – | – | – | – | – | – | – | – | – | – | – | – | – | – | – | – | –
